From US20250228835A1, “PYRIDINYLOXYPYRIDINES AND RELATED COMPOUNDS AND THEIR USE IN TREATING MEDICAL CONDITIONS” (Rectify Pharmaceuticals, Inc., priority 2024, published 2025)
pEC50: −log10 of the molar value.

Columns and labels:
Type in all cases: cell-based
[1] = target: T1, ABCA4 P1380L (Homo sapiens, UniProt P78363, P1380L); experiment: A4 correction dose-response assay: ABCA4 P1380L HiBit protein expression; details: HEK-293 cells stably expressing HiBit-tagged ABCA4 P1380L; 24 h treatment; top concentration 30 μM; read-out: ABCA4 P1380L EC50, Emax
T1 construct: expressed in transfected cells
Experimental: Exemplary compounds were evaluated in an A4 correction dose-response assay.
To assess activity against ABCA4 P1380L, the compounds were screened in an assay measuring protein expression, using cells transfected with cDNA encoding HiBit-tagged ABCA4 P1380L. Here we describe an assay for measuring the expression of the P1380L variant of human ABCA4 (henceforth referred to as ABCA4 P1380L) and the use of this assay to measure the efficacy of compounds to increase the expression of ABCA4 P1380L. The assay was designed to characterize the efficacy and potency of compounds to increase the expression of ABCA4 P1380L by calculating an Emax and EC50 value. […] (5% CO2, humidified). […] After the four-hour incubation period, 60 nL of DMSO solutions are transferred to the assay plate.
(§1) Dose response curves include eleven doses with the top final concentration at 30 μM in 0.3% DMSO. Liquid handling is performed with ECHO 550 Acoustic Liquid Handler (Labcyte). After addition of compound treatment, cells are incubated for 24 hours at 37° C. (5% CO2, humidified). After the 24-hour treatment, plates are allowed to equilibrate to room temperature for 10 minutes. Using Dragonfly Automated Liquid Handler (TTP LabTech), 20 μl of HiBit lytic assay reagent (Promega, product #N3040), which is prepared according to manufacturer's instructions, is added to each well. The plates are rotated at room temperature for 2 minutes and incubated for 1 hour at 25° C. before luminescent signal is acquired using an EnVision Multimode Plate Reader (PerkinElmer).

[2] = target: T2, ABCB4 WT (Homo sapiens, UniProt P21439); experiment: ABCB4 WT assay: HiBit protein expression; details: HEK-293 cells stably expressing HiBit-tagged ABCB4 WT; 24 h treatment; top concentration 30 μM; read-out: ABCB4 WT EC50, Emax
T2 construct: expressed in transfected cells
From the text: To assess activity against ABCB4, compounds were screened in an assay measuring protein expression, using cells transfected with cDNA encoding HiBit-tagged ABCB4 wild-type.
Described here is an assay for measuring the expression of the wild type of human ABCB4 (henceforth referred to as ABCB4 WT) and the use of this assay to measure the efficacy of compounds to increase the expression of ABCB4 WT. The assay was designed to characterize the efficacy and potency of compounds to increase the expression of ABCB4 WT by calculating an Emax and EC50 value. HEK-293 cells stably expressing ABCB4 WT (HEK-293/ABCB4 WT) were used for this assay and were maintained at 37° C. (5% CO2, humidified) in Dulbecco's Modified Eagle Medium (DMEM, Gibco product #12100) supplemented with 10% fetal bovine serum (Biosera product #FB-1058/500), 1% PenStrep (HDB product #15140-122), and 0.5 mg/mL puromycin (Gibco product #A11138-03). For the assay, the HEK-293/ABCB4 WT cells were seeded in white/opaque 384-well plates (Corning product #3570) at 10,000 cells/well in 20 μl growth medium and allowed to settle for 4 hours at 37° C. (5% CO2, humidified). Compound serial dilutions are prepared in DMSO as three hundred times (333×) the final concentration and using a dilution factor of 3 using Bravo (Agilent). After the four-hour incubation period, 60 nL of DMSO solutions are transferred to the assay plate.
as §1
Results are presented below in Table 5 for ABCB4 WT.

[3] = target: T3, ABCC6 WT (Homo sapiens, UniProt O95255); experiment: ABCC6 WT assay: HiBit protein expression; details: HEK-293 cells transiently expressing HiBit-tagged ABCC6 WT; 24 h treatment; top concentration 20 μM; read-out: ABCC6 WT EC50, Emax
T3 construct: expressed in transfected cells; host or cells: HEK-293 (transient, Lipofectamine 2000)
From the text: To assess activity against ABCC6, compounds were screened in an assay measuring protein expression, using cells transfected with cDNA encoding HiBit-tagged ABCC6 wild-type.
Described here is an assay for measuring the expression of the wild type of human ABCC6 (henceforth referred to as ABCC6 WT) and the use of this assay to measure the efficacy of compounds to increase the expression of ABCC6 WT. The assay was designed to characterize the efficacy and potency of compounds to increase the expression of ABCC6 WT by calculating an Emax and EC50 value. HEK-293 cells transiently expressing ABCC6 WT (HEK-293/ACC6 WT) were used for this assay and were cultured at 37° C. (5% CO2, humidified) in Dulbecco's Modified Eagle Medium (DMEM, Gibco product #11965-092) supplemented with 10% fetal bovine serum. For the assay, HEK-293 cells were transfected with […]/10 cm plate of cDNA encoding HiBit-tagged ABCC6 wild-type using Lipofectamine 2000 (Thermo Fisher, product #11668019). Twenty-four hours after transfection, the HEK-293/ACC6 WT cells were seeded in white/opaque 384-well plates (PerkinElmer, cat. No. 6007688) at 10,000 cells/well in 20 μl growth medium and allowed to settle for 4 hours at 37° C. (5% CO2, humidified). Compound serial dilutions are prepared in growth medium as ten times (10×) the final concentration and using a dilution factor of 2. After the four-hour incubation period, 2.2 μL of the 10× dilutions are transferred to the assay plate.
Dose response curves include ten doses with the top final concentration at 20 μM in 0.15% DMSO. Liquid handling is performed with an Integra mini96-tip head (INTEGRA). After addition of compound treatment, cells are incubated for 24 hours at 37° C. (5% CO2, humidified). After the 24-hour treatment, plates are allowed to equilibrate for 15 minutes at room temperature. Using Integra mini-96, 20 μl of HiBit lytic assay reagent (Promega, product #N3040), which is prepared according to manufacturer's instructions, is added to each well. The plates are rotated at room temperature for 10 minutes and luminescent signal is acquired using an EnVision Multimode Plate Reader (PerkinElmer).
Results are presented below in Table 4 for ABCC6 WT.

T2 sequence (P21439 whole entry): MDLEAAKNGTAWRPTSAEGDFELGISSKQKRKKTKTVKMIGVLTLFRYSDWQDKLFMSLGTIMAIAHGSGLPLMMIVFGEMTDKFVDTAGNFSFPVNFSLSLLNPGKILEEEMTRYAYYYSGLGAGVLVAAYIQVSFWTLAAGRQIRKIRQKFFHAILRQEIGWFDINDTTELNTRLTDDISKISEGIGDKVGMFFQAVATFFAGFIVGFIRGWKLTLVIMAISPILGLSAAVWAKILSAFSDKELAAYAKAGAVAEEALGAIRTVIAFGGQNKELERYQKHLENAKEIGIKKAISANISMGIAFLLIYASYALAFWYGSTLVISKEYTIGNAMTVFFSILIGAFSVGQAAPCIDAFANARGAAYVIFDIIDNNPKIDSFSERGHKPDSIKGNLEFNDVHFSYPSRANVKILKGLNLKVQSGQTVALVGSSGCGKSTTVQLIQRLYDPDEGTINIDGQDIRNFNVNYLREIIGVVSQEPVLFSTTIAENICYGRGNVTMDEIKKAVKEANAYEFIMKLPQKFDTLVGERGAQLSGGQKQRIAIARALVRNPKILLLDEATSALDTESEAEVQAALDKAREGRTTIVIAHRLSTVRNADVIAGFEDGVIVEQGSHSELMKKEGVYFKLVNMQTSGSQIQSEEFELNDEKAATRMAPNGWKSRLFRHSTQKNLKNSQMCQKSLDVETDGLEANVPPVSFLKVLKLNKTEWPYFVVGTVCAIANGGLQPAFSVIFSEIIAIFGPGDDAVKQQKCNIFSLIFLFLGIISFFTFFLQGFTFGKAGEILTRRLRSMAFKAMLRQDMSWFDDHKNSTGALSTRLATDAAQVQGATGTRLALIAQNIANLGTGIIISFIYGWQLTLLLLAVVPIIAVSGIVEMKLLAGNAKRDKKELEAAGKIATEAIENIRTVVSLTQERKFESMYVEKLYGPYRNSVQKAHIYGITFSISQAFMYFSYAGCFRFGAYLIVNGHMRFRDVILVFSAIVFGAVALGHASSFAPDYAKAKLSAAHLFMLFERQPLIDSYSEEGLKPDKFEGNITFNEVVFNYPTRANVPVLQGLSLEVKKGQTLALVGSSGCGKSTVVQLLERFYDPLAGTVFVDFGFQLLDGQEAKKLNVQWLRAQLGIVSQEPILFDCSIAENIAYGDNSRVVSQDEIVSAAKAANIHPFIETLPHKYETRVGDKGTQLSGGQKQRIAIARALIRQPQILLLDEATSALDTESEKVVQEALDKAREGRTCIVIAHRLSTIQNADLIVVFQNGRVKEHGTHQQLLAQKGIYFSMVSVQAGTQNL
T1 sequence (P78363 whole entry P1380L): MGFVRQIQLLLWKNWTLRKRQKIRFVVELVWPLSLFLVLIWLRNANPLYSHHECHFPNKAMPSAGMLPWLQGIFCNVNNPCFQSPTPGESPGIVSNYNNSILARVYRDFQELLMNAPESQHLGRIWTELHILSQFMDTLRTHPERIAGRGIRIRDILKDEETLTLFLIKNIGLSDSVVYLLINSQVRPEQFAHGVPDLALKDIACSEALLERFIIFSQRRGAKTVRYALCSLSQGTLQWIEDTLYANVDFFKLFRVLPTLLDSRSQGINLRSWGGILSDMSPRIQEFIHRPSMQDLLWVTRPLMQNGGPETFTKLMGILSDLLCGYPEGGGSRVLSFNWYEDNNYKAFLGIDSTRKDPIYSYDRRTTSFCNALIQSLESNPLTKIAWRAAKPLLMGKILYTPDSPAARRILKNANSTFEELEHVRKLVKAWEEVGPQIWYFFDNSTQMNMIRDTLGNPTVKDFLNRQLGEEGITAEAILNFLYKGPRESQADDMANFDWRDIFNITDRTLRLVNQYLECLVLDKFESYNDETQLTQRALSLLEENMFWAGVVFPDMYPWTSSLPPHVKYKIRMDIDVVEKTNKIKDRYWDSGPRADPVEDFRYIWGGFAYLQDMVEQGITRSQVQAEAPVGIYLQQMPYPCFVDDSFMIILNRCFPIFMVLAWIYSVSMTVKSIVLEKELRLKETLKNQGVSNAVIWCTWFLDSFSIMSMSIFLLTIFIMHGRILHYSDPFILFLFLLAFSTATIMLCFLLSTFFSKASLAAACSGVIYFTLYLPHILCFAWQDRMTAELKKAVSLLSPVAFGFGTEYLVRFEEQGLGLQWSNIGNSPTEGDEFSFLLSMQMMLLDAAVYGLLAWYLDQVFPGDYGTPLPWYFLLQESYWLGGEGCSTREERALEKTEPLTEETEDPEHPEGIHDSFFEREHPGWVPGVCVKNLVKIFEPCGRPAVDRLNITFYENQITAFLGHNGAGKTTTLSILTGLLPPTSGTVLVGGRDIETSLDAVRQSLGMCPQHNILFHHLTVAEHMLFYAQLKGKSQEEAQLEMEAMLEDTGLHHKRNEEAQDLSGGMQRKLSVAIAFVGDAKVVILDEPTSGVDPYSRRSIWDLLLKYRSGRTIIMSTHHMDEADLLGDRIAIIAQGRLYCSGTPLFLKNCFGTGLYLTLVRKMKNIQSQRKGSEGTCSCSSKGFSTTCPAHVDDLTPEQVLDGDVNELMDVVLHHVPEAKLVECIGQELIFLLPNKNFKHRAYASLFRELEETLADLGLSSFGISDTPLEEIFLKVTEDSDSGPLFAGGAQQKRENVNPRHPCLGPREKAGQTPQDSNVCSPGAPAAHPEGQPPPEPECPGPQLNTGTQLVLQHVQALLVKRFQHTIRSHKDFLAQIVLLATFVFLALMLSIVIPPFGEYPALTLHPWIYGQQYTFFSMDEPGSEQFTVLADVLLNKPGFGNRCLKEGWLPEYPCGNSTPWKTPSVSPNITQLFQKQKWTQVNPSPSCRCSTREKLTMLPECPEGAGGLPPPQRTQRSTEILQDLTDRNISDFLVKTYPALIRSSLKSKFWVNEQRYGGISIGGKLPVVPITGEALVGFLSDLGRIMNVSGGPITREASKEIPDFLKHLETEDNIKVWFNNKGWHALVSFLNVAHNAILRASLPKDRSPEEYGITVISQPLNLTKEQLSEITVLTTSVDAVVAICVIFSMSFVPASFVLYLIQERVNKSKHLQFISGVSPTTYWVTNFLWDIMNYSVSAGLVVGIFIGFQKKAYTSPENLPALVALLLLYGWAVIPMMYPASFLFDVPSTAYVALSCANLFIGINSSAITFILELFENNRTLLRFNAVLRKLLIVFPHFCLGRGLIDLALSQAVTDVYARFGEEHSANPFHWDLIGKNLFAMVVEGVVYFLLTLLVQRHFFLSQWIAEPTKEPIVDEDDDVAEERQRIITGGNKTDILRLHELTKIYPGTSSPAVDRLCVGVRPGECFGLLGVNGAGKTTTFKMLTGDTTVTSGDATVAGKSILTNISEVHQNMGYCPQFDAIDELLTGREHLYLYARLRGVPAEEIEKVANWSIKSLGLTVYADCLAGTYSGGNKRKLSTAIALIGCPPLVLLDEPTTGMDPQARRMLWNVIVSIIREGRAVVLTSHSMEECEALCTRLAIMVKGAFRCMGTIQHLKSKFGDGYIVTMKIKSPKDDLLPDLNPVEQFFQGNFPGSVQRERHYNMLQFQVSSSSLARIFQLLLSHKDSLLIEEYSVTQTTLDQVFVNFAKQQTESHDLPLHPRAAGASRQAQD
T3 sequence (O95255 whole entry): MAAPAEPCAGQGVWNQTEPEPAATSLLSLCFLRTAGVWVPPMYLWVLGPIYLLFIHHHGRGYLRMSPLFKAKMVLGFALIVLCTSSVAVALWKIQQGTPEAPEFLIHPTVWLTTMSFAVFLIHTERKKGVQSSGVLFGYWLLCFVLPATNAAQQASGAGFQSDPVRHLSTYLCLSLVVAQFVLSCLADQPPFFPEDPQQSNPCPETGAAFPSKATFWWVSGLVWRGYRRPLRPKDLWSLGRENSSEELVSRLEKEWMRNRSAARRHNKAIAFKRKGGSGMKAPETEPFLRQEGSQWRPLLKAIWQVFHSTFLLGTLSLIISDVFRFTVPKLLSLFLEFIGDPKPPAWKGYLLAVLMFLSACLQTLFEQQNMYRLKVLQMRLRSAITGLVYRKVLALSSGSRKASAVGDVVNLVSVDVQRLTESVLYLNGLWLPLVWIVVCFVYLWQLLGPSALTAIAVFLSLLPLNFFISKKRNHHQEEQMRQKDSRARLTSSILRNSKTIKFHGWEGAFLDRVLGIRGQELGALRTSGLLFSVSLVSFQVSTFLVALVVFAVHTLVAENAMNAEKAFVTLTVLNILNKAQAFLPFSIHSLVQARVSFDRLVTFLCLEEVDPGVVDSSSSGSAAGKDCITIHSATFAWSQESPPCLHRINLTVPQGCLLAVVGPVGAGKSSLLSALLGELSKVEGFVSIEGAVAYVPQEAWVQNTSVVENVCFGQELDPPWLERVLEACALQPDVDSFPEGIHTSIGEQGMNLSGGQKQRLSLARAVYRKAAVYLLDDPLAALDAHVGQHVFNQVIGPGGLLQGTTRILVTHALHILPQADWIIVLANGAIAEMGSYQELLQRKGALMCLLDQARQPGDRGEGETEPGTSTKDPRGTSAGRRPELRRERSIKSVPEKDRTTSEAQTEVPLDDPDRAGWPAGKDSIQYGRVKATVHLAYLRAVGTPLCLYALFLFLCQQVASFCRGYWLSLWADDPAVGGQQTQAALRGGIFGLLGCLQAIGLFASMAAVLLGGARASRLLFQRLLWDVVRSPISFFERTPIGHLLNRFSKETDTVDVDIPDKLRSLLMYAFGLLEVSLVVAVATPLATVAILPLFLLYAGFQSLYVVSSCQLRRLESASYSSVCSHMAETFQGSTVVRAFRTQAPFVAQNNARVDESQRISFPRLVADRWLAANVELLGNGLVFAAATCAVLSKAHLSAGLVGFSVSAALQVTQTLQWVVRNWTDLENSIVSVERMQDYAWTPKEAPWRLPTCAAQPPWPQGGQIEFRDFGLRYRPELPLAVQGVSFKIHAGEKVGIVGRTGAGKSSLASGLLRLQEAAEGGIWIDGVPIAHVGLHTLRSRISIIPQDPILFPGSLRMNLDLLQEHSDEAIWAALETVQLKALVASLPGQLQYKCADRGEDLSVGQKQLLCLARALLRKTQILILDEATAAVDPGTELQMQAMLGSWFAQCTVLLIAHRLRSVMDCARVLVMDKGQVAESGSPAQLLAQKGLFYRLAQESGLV

| SMILES | pEC50 [1] | pEC50 [2] | pEC50 [3] |
| --- | --- | --- | --- |
| CCS(=O)(=O)N(C)c1ccc(-c2cncc(C#N)c2)nc1Oc1c(C)cc(C(F)(F)F)nc1C1CC1 [Compound I-148] | > 6.00 | > 6.00 | > 6.00 |
| Cc1nc(C(F)(F)F)nc(C2CC2)c1Oc1nc(-c2cncc(Cl)c2)ccc1N(C)S(C)(=O)=O [Compound I-149] | < 4.60 | ≤ 4.60 | > 4.60 |
| Cc1nc(C2CC2)nc(C2CC2)c1Oc1nc(-c2cncc(C#N)c2)ccc1NS(C)(=O)=O [Compound I-150] | > 6.00 | > 6.00 | > 6.00 |
| Cc1nc(C(F)(F)F)nc(C2CC2)c1Oc1nc(-c2cncc(Cl)c2)ccc1NS(C)(=O)=O [Compound I-151] | > 6.00 | > 6.00 | > 6.00 |
| CCS(=O)(=O)Nc1ccc(-c2cncc(C#N)c2)nc1Oc1c(C)cc(C(F)(F)F)nc1C1CC1 [Compound I-152] | > 6.00 | > 6.00 | > 6.00 |
| Cc1cc(C(F)(F)F)nc(C2CC2)c1Oc1nc(-c2cncc(Cl)c2)ccc1N(C)S(C)(=O)=O [Compound I-153] | < 4.60 | ≤ 4.60 | 5.00 to 6.00 |
| Cc1nc(C(F)(F)F)cc(C2CC2)c1Oc1nc(-c2cncc(C#N)c2)ccc1N(C)S(C)(=O)=O [Compound I-154] | > 4.60 | > 4.60 | > 4.60 |
| Cc1nc(C(F)(F)F)cc(C2CC2)c1Oc1nc(-c2cncc(C#N)c2)ccc1NS(C)(=O)=O [Compound I-155] | > 6.00 | > 6.00 | > 6.00 |
| Cc1cc(C(F)(F)F)nc(C2CC2)c1Oc1nc(-c2cncc(C#N)c2)ccc1N(C)S(C)(=O)=O [Compound I-156] | > 4.60 | ≤ 4.60 | ≤ 4.60 |
| Cc1nc(C)c(Oc2nc(-c3cncc(C#N)c3)ccc2N(C)S(C)(=O)=O)c(C2CC2)n1 [Compound I-157] | < 4.60 | > 4.60 | ≤ 4.60 |
| Cc1cc(C(F)(F)F)nc(C2CC2)c1Oc1nc(-c2cncc(Cl)c2)ccc1NS(C)(=O)=O [Compound I-158] | > 6.00 | > 6.00 | > 6.00 |
| Cc1nc(N2CC(C#N)C2)nc(C)c1Oc1nc(-c2cncc(C#N)c2)ccc1NS(C)(=O)=O [Compound I-159] | > 4.60 | > 6.00 | > 6.00 |
| Cc1nc(N2CC3(COC3)C2)nc(C)c1Oc1nc(-c2cncc(C#N)c2)ccc1NS(C)(=O)=O [Compound I-160] | < 4.60 | > 4.60 | 5.00 to 6.00 |
| Cc1cc(C2CC2)nc(C2CC2)c1Oc1nc(-c2cncc(C#N)c2)ccc1NS(C)(=O)=O [Compound I-161] | > 6.00 | > 6.00 | > 6.00 |
| Cc1nc(C2CC2)cc(C2CC2)c1Oc1nc(-c2cncc(C#N)c2)ccc1NS(C)(=O)=O [Compound I-162] | > 6.00 | ≤ 4.60 | > 6.00 |
| Cc1cc(C(F)(F)F)nc(C2CC2)c1Oc1nc(-c2cncc(C#N)c2)ccc1NS(C)(=O)=O [Compound I-163] | > 4.60 | > 6.00 | > 6.00 |

| SMILES | pEC50 [1] | pEC50 [2] | pEC50 [3] |
| --- | --- | --- | --- |
| Cc1nc(C)c(Oc2nc(-c3cncc(Cl)c3)ccc2NS(C)(=O)=O)c(C2CC2)n1 [Compound I-164] | 5.00 to 6.00 | 5.00 to 6.00 | > 4.60 |
| Cc1cc(C(F)(F)F)nc(C2CC2)c1Oc1nc(-c2cncc(C#N)c2)ccc1N=S(C)(C)=O [Compound I-286] | < 4.60 | ≤ 4.60 | > 6.00 |
| Cc1cc(C(F)(F)F)nc(C2CC2)c1Oc1nc(-c2cncc(C#N)c2)ccc1S(=N)(=O)C1CC1 (stereo not drawn) [Compound I-287] | < 4.60 | > 4.60 | ≤ 4.60 |
| Cc1cc(C(F)F)nc(C2CC2)c1Oc1nc(-c2cncc(C#N)c2)ccc1S(=O)(=O)NC1CC1 [Compound I-288] | 5.00 to 6.00 | 5.00 to 6.00 | > 6.00 |
| CNS(=O)(=O)c1ccc(-c2cncc(C#N)c2)nc1Oc1c(C)cc(C(F)F)nc1C1CC1 [Compound I-289] | < 4.60 | 4.60 to 5.00 | > 6.00 |
| Cc1cc(C(F)(F)F)nc(C2CC2)c1Oc1nc(-c2cncc(C#N)c2)ccc1S(=O)(=O)N1CCOCC1 [Compound I-290] | < 4.60 | ≤ 4.60 | ≤ 4.60 |
| Cc1cc(C(F)(F)F)nc(C2CC2)c1Oc1nc(-c2cncc(C#N)c2)ccc1S(=O)(=O)N(C)C [Compound I-291] | > 4.60 | > 6.00 | 5.00 to 6.00 |
| Cc1nc(C(F)(F)F)nc(C2CC2)c1Oc1nc(-c2cncc(C#N)c2)ccc1S(=O)(=O)NC1CC1 [Compound I-292] | 5.00 to 6.00 | 5.00 to 6.00 | > 6.00 |
| CNS(=O)(=O)c1ccc(-c2cncc(C#N)c2)nc1Oc1c(C)cc(C(F)(F)F)nc1C1CC1 [Compound I-293] | > 4.60 | > 6.00 | 5.00 to 6.00 |
| Cc1cc(C(F)(F)F)nc(C2CC2)c1Oc1nc(-c2cncc(C#N)c2)ccc1S(=O)(=O)Nc1cccnc1 [Compound I-294] | > 4.60 | 4.60 to 5.00 | > 6.00 |
| Cc1cc(C(F)(F)F)nc(C2CC2)c1Oc1nc(-c2cccc(C#N)c2)ccc1S(=N)(=O)C1CC1 (stereo not drawn) [Compound I-295] | > 4.60 | ≤ 4.60 | > 6.00 |
| Cc1cc(C(F)(F)F)nc(C2CC2)c1Oc1nc(-c2cncc(C#N)c2)ccc1S(=N)(=O)c1cccnn1 (stereo not drawn) [Compound I-296] | > 6.00 | > 6.00 | 5.00 to 6.00 |
| Cc1cc(C(F)(F)F)nc(C2CC2)c1Oc1nc(-c2cncc(C#N)c2)ccc1S(=N)(=O)c1cnccn1 (stereo not drawn) [Compound I-297] | 5.00 to 6.00 | 5.00 to 6.00 | 5.00 to 6.00 |
| CNS(=O)(=O)c1ccc(-c2cncc(C#N)c2)nc1Oc1c(C)cc(C2CC2)nc1C1CC1 [Compound I-298] | < 4.60 | ≤ 4.60 | 5.00 to 6.00 |
| Cc1sc(C2CC2)nc1Oc1nc(-c2cncc(C#N)c2)ccc1NS(C)(=O)=O [Compound I-299] | > 6.00 | > 6.00 | > 6.00 |
